Like-named read-outs stand apart in the source and are kept apart here. Values belong to the compound of their own block, whether it stands above or below them.
Tests used:
15-PGDH/HPGD = 15-PGDH/HPGD (Homo sapiens (Human), UniProt P15428); test: hPGDH inhibitor screening biochemical assay
Procedure, shortened: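 10 nM recombinant 15-PGDH was preincubated with compound (10-point) for 10 min at 37° C. in 50 mM Tris-HCl pH 7.5, 0.01% Tween 20. Then 15 μM PGE2 and 0.25 mM NAD+ were added for 10 min at rt. NADH fluorescence (ex/em 340/485 nm) gave % inhibition versus 1% DMSO and a four-parameter IC50.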

[1] = Pharmacokinetic study in mice, intravenous 1 mg/kg; type: in vivo, C57BL/6 mice
Description: Each mice PK study consisted of nine male C57BL/6 mice per group with sparse sampling design (n=3 mice per time point). The animals from intravenous groups were dosed with solution formulation of compounds via tail vein at 1 mg/kg dose. Ten compounds were screened in mice and one compound (the compound of Formula IV) was dosed in rat (n=3; serial sampling) following intravenous dose administration at 1 mg/kg dose. The solution formulation for compounds was prepared in 5% v/v DMA, 25% v/v PEG-400, and 70% v/v HPBCD (30% w/v); 15% v/v DMA, 5% Solutol HS-15, and 80% 1:1 PEG-300: Normal saline (2.25%); or 10% v/v DMA, 25% PEG-400, and 65% HPBCD (30% w/v solution). The dosing volume was 1 and 5 mL/kg for intravenous dose in rat and mice respectively. Blood samples (approximately 60 μL from mice and 120 μL from rats) were collected under light isoflurane anesthesia from a set of three mice at 0, 0.08, 0.25, 0.5, 1, 2, 4, 8, 12, and 24 hours post-dose. Plasma was harvested by centrifugation of blood and stored at −70±10° C. until analysis. Fit-for purpose LC-MS/MS method was developed and samples were processed by protein precipitation method. Non-Compartmental-Analysis tool of Phoenix WinNonlinR (Version 8.0) was used to assess the pharmacokinetic parameters. The areas under the concentration time curve (AUClast and AUCinf) were calculated by linear trapezoidal rule. The terminal elimination rate constant, Ke was determined by regression analysis of the linear terminal portion of the log plasma concentration-time curve. The terminal half-life (T1/2) was estimated at 0.693/ke. CLIV=Dose/AUCinf; Vss=MRT×CLIV.

[2] = Compound stability in mouse liver microsomes; type: in vitro ADME; conditions: 37° C.
Description: A microsomal mixture comprising mouse liver microsomes and a potassium phosphate buffer was prepared at a concentration of 1.428 mg/mL in 2 mL tubes. 1.6 μL of test compound or imipramine as a positive control was added to the mixture, and 70 μL was transferred to a 96 well plate and pre-incubated at 37° C. for 5 minutes. After pre-incubation, […] 30 μL of NADPH (3.33 mM in potassium phosphate buffer) was added. The reaction mixtures were incubated at 37° C. for 15 and 45 minutes. Reactions without NADPH and buffer controls (minus NADPH) were conducted to rule out non-NADPH metabolism and chemical instability in the incubation buffer. The reactions were quenched with 100 μL ice cold acetonitrile containing an internal standard. The plates were centrifuged at 4000 RPM for 15 minutes and 100 μL aliquots were analyzed for parent compound disappearance by LC-MS/MS. The peak area ratios of analyte versus internal standard were used to calculate the percent remaining at the end of 45 minutes.

[3] = 10 nM 15-PGDH/HPGD, 15 μM PGE2, 0.25 mM NAD, read-out: hPGDH: Average IC50
[4] = Table 1, PGDH inhibitors with a 6-5 ring core, read-out: hPGDH: IC50
[5] = Table 2, PGDH inhibitors with a phenyl core, read-out: hPGDH: IC50

Chain of 15-PGDH/HPGD (P15428 whole entry): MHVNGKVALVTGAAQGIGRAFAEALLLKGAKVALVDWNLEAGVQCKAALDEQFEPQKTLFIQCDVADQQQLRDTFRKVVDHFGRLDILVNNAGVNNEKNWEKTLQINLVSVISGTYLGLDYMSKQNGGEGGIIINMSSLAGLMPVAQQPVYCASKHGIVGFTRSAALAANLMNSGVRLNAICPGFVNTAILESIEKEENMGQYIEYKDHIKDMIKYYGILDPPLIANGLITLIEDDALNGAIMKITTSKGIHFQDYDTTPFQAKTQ

- IC50 (15-PGDH/HPGD; [3]): < 100 nM
Compound: O=C(c1cnc2c(ccn2-c2ccc(-c3nnc(C(F)(F)F)[nH]3)nc2)c1)N1CCC(F)(F)CC1 [A-334, (4,4-Difluoropiperidin-1-yl)(1-(6-(5-(trifluoromethyl)-4H-1,2,4-triazol-3-yl)pyridin-3-yl)-1H-pyrrolo[2,3-b]pyridin-5-yl)methanone]

- IC50 (15-PGDH/HPGD; [3]): < 100 nM
Compound: CC(C)(C)c1ccc(NC(=O)c2cncc(-n3ccc4cc(C(=O)N5CCC(F)(F)CC5)cnc43)c2)cn1 [A-335, N-(6-(tert-butyl)pyridin-3-yl)-5-(5-(4,4-difluoropiperidine-1-carbonyl)-1H-pyrrolo[2,3-b]pyridin-1-yl)nicotinamide]

- IC50 (15-PGDH/HPGD; [3]): < 100 nM
Compound: CC(C)(O)CCc1cc2cc(C(=O)N3CCC(F)(F)CC3)cnc2n1-c1ccc(C(=O)O)cc1 [A-336, 4-(5-(4,4-difluoropiperidine-1-carbonyl)-2-(3-hydroxy-3-methylbutyl)-1H-pyrrolo[2,3-b]pyridin-1-yl)benzoic acid]

- IC50 (15-PGDH/HPGD; [3]): < 100 nM
Compound: Cc1nc(-c2ccc(-n3c(CCC(C)(C)O)cc4cc(C(=O)N5CCC(F)(F)CC5)cnc43)cc2)no1 [A-337, (4,4-difluoropiperidin-1-yl)(2-(3-hydroxy-3-methylbutyl)-1-(4-(5-methyl-1,2,4-oxadiazol-3-yl)phenyl)-1H-pyrrolo[2,3-b]pyridin-5-yl)methanone]

- IC50 (15-PGDH/HPGD; [3]): < 100 nM
Compound: C[C@H]1CCCN(C(=O)c2cnc3c(ccn3-c3ccc(C(=O)O)cc3)c2)C1 [A-339, (S)-4-(5-(3-methylpiperidine-1-carbonyl)-1H-pyrrolo[2,3-b]pyridin-1-yl)benzoic acid]

- IC50 (15-PGDH/HPGD; [3]): ≥ 1000 nM
Compound: COCCc1nc2cc(C(=O)N3CCC(F)CC3)cnc2n1-c1ccc(OC)cc1 [A-342]

- IC50 (15-PGDH/HPGD; [3]): < 100 nM
Compound: NC(=O)c1cncc(-n2ccc3cc(C(=O)N4CCC(F)CC4)cnc32)c1 [A-346]

- IC50 (15-PGDH/HPGD; [3]): < 100 nM
Compound: NC(=O)c1ccc(-n2ccc3cc(C(=O)N4CCC(F)CC4)cnc32)cn1 [A-347]

- IC50 (15-PGDH/HPGD; [3]): < 100 nM
Compound: NC(=O)c1cncc(-n2ccc3cc(C(=O)N4CCCCC4)cnc32)c1 [A-348]

- IC50 (15-PGDH/HPGD; [3]): < 100 nM
Compound: CNC(=O)c1cncc(-n2ccc3cc(C(=O)N4CCCCC4)cnc32)c1 [A-349]

- IC50 (15-PGDH/HPGD; [3]): < 100 nM
Compound: CN(C)C(=O)c1cncc(-n2ccc3cc(C(=O)N4CCCCC4)cnc32)c1 [A-350]

- IC50 (15-PGDH/HPGD; [3]): < 100 nM
Compound: N#Cc1cncc(-n2ccc3cc(C(=O)N4CCCCC4)cnc32)c1 [A-351]

- AUCinf [1]: 156.23 ng·h/mL
- AUClast [1]: 156.13 ng·h/mL
- C0/Cmax [1]: 749.07 ng/mL
- CL [1]: 106.68 mL/min/kg
- T1/2 [1]: 12 min
- Vss [1]: 1.52 L/kg
- % Remaining at 45 Minutes (Mouse Liver Microsomes + NADPH) [2]: 70%
Compound: NC(=O)c1ccc(-n2ccc3cc(C(=O)N4CCC(F)CC4)cnc32)cc1 [Formula IX]

- AUCinf [1]: 156.49 ng·h/mL
- AUClast [1]: 156.43 ng·h/mL
- C0/Cmax [1]: 1012.93 ng/mL
- CL [1]: 106.5 mL/min/kg
- T1/2 [1]: 26.4 min
- Vss [1]: 1.58 L/kg
- % Remaining at 45 Minutes (Mouse Liver Microsomes + NADPH) [2]: 80%
Compound: CNC(=O)c1ccc(-n2ccc3cc(C(=O)N4CCCCC4)cnc32)cc1 [Formula VIII]

- AUCinf [1]: 214.11 ng·h/mL
- AUClast [1]: 211.95 ng·h/mL
- C0/Cmax [1]: 633.31 ng/mL
- CL [1]: 77.84 mL/min/kg
- T1/2 [1]: 20.4 min
- Vss [1]: 1.56 L/kg
- % Remaining at 45 Minutes (Mouse Liver Microsomes + NADPH) [2]: 88%
Compound: CNC(=O)c1ccc(-n2ccc3cc(C(=O)N4CCC(F)CC4)cnc32)cc1 [Formula VII]

- AUCinf [1]: 259.43 ng·h/mL
- AUClast [1]: 256.19 ng·h/mL
- C0/Cmax [1]: 571.21 ng/mL
- CL [1]: 64.24 mL/min/kg
- T1/2 [1]: 42 min
- Vss [1]: 2.52 L/kg
- % Remaining at 45 Minutes (Mouse Liver Microsomes + NADPH) [2]: 89%
Compound: Cc1c(C(=O)N2CCC(F)CC2)cnc2c1ccn2-c1ccc(C(N)=O)cc1 [Formula VI]

Compound: CN(C)C(=O)c1ccc(-n2ccc3cc(C(=O)N4CCCCC4)cnc32)cc1 [Formula V]
- AUCinf [1]: 263.35 ng·h/mL
- AUClast [1]: 262.46 ng·h/mL
- C0/Cmax [1]: 1442.49 ng/mL
- CL [1]: 63.29 mL/min/kg
- T1/2 [1]: 18 min
- Vss [1]: 0.76 L/kg
- % Remaining at 45 Minutes (Mouse Liver Microsomes + NADPH) [2]: 86%

- AUCinf [1]: 129.4 ng·h/mL
- AUClast [1]: 117.19 ng·h/mL
- C0/Cmax [1]: 490.48 ng/mL
- CL [1]: 128.8 mL/min/kg
- T1/2 [1]: 38.4 min
- Vss [1]: 5.16 L/kg
- % Remaining at 45 Minutes (Mouse Liver Microsomes + NADPH) [2]: 81%
Compound: NC(=O)c1ncc(-n2ccc3cc(C(=O)N4CCCCC4)cnc32)cn1 [Formula XII]

- IC50 (15-PGDH/HPGD; [4]): 57.4 nM
Compound: COc1ccc(-n2cnc3cc(C(=O)N4CCC(F)(F)CC4)cnc32)cc1 [drawing 78]

- IC50 (15-PGDH/HPGD; [4]): 19.5 nM
Compound: COc1ccc(-n2cnc3cc(C(=O)N4CCC(F)CC4)cnc32)cc1 [drawing 79]

- IC50 (15-PGDH/HPGD; [4]): 20.1 nM
Compound: COc1ccc(-n2cnc3cc(C(=O)N4CCCCC4)cnc32)cc1 [drawing 80]

- IC50 (15-PGDH/HPGD; [4]): 0.6 nM
Compound: O=C(c1cnc2c(ccn2-c2cnccn2)c1)N1CCCCC1 [drawing 81]

- IC50 (15-PGDH/HPGD; [4]): 2.5 nM
Compound: O=C(c1ccc2c(c1)ncn2-c1ccc(O)c(Cl)c1)N1CCCCC1 [drawing 82]

- IC50 (15-PGDH/HPGD; [4]): 1260 nM
Compound: O=C(c1ccc2c(c1)ncn2-c1cccc(Cl)c1)N1CCC(F)(F)C1 [drawing 83]

- IC50 (15-PGDH/HPGD; [4]): 2870 nM
Compound: O=C(c1ccc2c(c1)ncn2-c1cccc(Cl)c1)N1CCC(O)C1 (stereo not shown) [drawing 84]

- IC50 (15-PGDH/HPGD; [4]): 44.9 nM
Compound: NC(=O)CCc1nc2cc(C(=O)N3CCCCC3)ccc2n1-c1cccc(Cl)c1 [drawing 85]

- IC50 (15-PGDH/HPGD; [4]): 4540 nM
Compound: O=C1CCN(C(=O)c2ccc3c(c2)ncn3-c2cccc(Cl)c2)C1 [drawing 88]

- IC50 (15-PGDH/HPGD; [4]): 5.6 nM
Compound: Cc1nc2cc(C(=O)N3CCCCC3)ccc2n1-c1cccc(Cl)c1 [drawing 89]

- IC50 (15-PGDH/HPGD; [4]): 64.7 nM
Compound: O=C(c1ccc2c(c1)ncn2-c1cccc(Cl)c1)N1CCC(Cl)C1 (stereo not shown) [drawing 90]

- IC50 (15-PGDH/HPGD; [4]): 5.7 nM
Compound: O=C(c1ccn2c(-c3cccc(Cl)c3)cnc2c1)N1CCCCC1 [drawing 93]

- IC50 (15-PGDH/HPGD; [4]): 12.2 nM
Compound: O=C(c1ccc2c(c1)ncn2-c1cccc(Cl)c1)N1CCC(F)(F)CC1 [drawing 96]

- IC50 (15-PGDH/HPGD; [4]): 46.6 nM
Compound: O=C(c1ccc2c(c1)ncn2-c1cccc(Cl)c1)N1CC2CCC(C2)C1 [drawing 97]

- IC50 (15-PGDH/HPGD; [4]): 2.7 nM
Compound: O=C(c1ccc2c(c1)ncn2-c1cccc(Cl)c1)N1CCCCC1 [drawing 98]

- IC50 (15-PGDH/HPGD; [4]): 43.9 nM
Compound: O=C(c1ccc2c(c1)ncn2-c1cccc(Cl)c1)N1CC2(CCC2)C1 [drawing 99]

- IC50 (15-PGDH/HPGD; [4]): 3.2 nM
Compound: O=C(c1ccc2c(c1)ncn2-c1cccc(Cl)c1)N1CCCCCC1 [drawing 101]

- IC50 (15-PGDH/HPGD; [4]): 24.9 nM
Compound: O=C(c1ccc2c(c1)ncn2-c1cccc(Cl)c1)N1CC2CCCC2C1 (stereo not shown) [drawing 102]

- IC50 (15-PGDH/HPGD; [4]): 10.6 nM
Compound: O=C(c1ccc2c(c1)c(Cl)cn2-c1cccc(Cl)c1)N1CCCCC1 [drawing 104]

- IC50 (15-PGDH/HPGD; [4]): 12.8 nM
Compound: O=C(c1cnc2c(c1)ncn2-c1cccc(Cl)c1)N1CCCCC1 [drawing 106]

- IC50 (15-PGDH/HPGD; [4]): 49.3 nM
Compound: O=C(c1cnc2c(-c3cccc(Cl)c3)cnn2c1)N1CCCCC1 [drawing 107]

- IC50 (15-PGDH/HPGD; [4]): 3.1 nM
Compound: O=C(c1ccc2c(c1)nnn2-c1cccc(Cl)c1)N1CCCCC1 [drawing 108]

- IC50 (15-PGDH/HPGD; [4]): 43.7 nM
Compound: COc1ccc(-n2cnc3cc(C(=O)N4CCC(F)CC4)ccc32)cc1 [drawing 109]

- IC50 (15-PGDH/HPGD; [4]): 6.4 nM
Compound: COc1ccc(-n2cnc3cc(C(=O)N4CCCCC4)ccc32)cc1 [drawing 110]

- IC50 (15-PGDH/HPGD; [4]): 5.8 nM
Compound: O=C(c1ccc2c(cnn2-c2cccc(Cl)c2)c1)N1CCCCC1 [drawing 111]

- IC50 (15-PGDH/HPGD; [4]): 0.5 nM
Compound: O=C(c1ccc2c(ccn2-c2cccc(Cl)c2)c1)N1CCCCC1 [drawing 112]

- IC50 (15-PGDH/HPGD; [5]): 8.5 nM
Compound: COc1cc(C(=O)N2CCCCC2)ccc1COc1ccccc1Cl [drawing 115]

- IC50 (15-PGDH/HPGD; [5]): 2280 nM
Compound: COc1ccccc1C(=O)N(C)c1ccc(C(=O)N2CCCCC2)cc1 [drawing 116]

- IC50 (15-PGDH/HPGD; [5]): 18.6 nM
Compound: O=C(c1ccc(COc2ccccc2Cl)cc1)N1CCCCC1 [drawing 117]

- IC50 (15-PGDH/HPGD; [5]): 27.1 nM
Compound: COc1ccccc1C(=O)Nc1ccc(C(=O)N2CCCCC2)cc1 [drawing 118]

- IC50 (15-PGDH/HPGD; [5]): 3.1 nM
Compound: O=C(c1ccc(COc2ccccc2Br)cc1)N1CCCCC1 [drawing 120]
